Structures can show the parent of a compound that is named as a salt. Where two headings read alike, the source gives them in different places.
Assays:
Format in all cases: cell-based
[1] = test system: strain NF54 of P. falciparum; experiment: 3H-hypoxanthine incorporation growth inhibition assay, P. falciparum NF54
Protocol: The biological activity of compounds of formula (I) according to the invention has been tested on the basis of an IC50 evaluation against the strain NF54 of P. falciparum.
For Hypoxanthine assay, parasite cultures were grown in 100 mm petri-dishes in growth media having 5% haematocrit in tri-gas incubator (Cat #3131, Thermo Scientific Forma Series II Water Jacketed CO2 incubator, sold by Thermofisher) having controlled gas mixtures of 4% CO2 and 3% O2 at temperature 37° C.
Parasite growth and morphology was observed daily using thin smears at 100× (oil immersion) magnification following staining with Giemsa stain.
Parasites use hypoxanthine included in the growth media as a precursor in nucleic acid synthesis. Accordingly, by replacing hypoxanthine in the media by a radioactive hypoxanthine, such as ^3H-hypoxanthine as indicated here-under, the rate of DNA replication and growth rate of the parasites can be measured, in particular in the presence of the tested compounds of the invention.
The growth media used for the above-indicated parasites contains 1 L of RPMI-1640 (sold by Invitrogen), […] of Albumax II (sold by Invitrogen), 5 mg of Hypoxanthine (sold by Sigma), 25 mM Hepes (sold by Invitrogen) and 2.5 mg of Gentamycin (sold by Sigma).
The screening media used contains 1 L of RPMI-1640 (sold by Invitrogen), […] of Albumax II (sold by Invitrogen), 25 mM Hepes (sold by Invitrogen) and 2.5 mg of Gentamycin (sold by Sigma).
For this assay, the above described screening media was used, as well as 20 Ci/mmol of a radioactive hypoxanthine (the ligand ^3H-hypoxanthine (20 Ci/mmol, 1 mCi/mL) sold by the American Radiolabeled Chemicals (ARC) from St Louis, Mo.), some Top Seal A (sold by Perkin Elmer), 96 Well Cell Culture plates (CellStar® sold by Greiner Bio-One GmbH), MicroScint® 20 (sold by Perkin Elmer) and GFB plates (sold by Perkin Elmer).
On each 96 well plate, 3 compounds of formula (I) according to the invention as well as one standard compound (positive control) are each tested in 12 wells in duplicate.
Said standard compound is a mixture of Artesunate and Chloroquine, two well-known anti malaria compounds.
The maximum activity value of the parasites is determined as positive control by observing the parasites in the presence of erythrocytes, while the minimum activity value of the parasites is determined in a negative control by observing the erythrocytes in the absence of parasites.
The tested compounds of the invention were assayed at a final concentration of 10 μM.
In order to do so, stock solutions at a concentration of […] of compound to be tested are made available in high recovery vials at a concentration of 10 mM. From this, a 20 μM stock in Screening media is prepared ([…] of 10 mM compound+996 μl of screening media) to keep % DMSO at 0.4.
Starting from 20 μM stock solution, 100 μl is added in the assay plate already containing 100 μl of screening media and 1:2 fold serial 12 point dilutions are made in the plate (10 μM to 4.8 nM) (100 μl of compound is mixed with 100 μl of screening media already present in plates, and so on).
P. falciparum culture diluted to 0.3% p and 1.25% h—synchronous ring stage. The assay was carried out in sterile, in the 96-well plate.
100 μL of P. falciparum culture was added per well and were then incubated at 37° C. for 48 hours. Smears are then made to check for growth of culture control after 48 hours of incubation.
Once ensured that the culture has grown in % p, 50 μL of 3H-Hypoxanthine (0.5 μCi/well) is added in each well, and the assay plate is further incubated for 24 hours.
After 72 hours, the assay plates are harvested on GFB plates. In order to remove nonspecific binding, the plates are washed with 2.5 ml of cooled distilled water and GFB plates were kept for drying at 37° C. over night or 60° C. for 1 hour.
50 μL of Microscint®-20 was added to each well.
The plates are then read in Top Count (45 sec/well).
The assay data were analysed using Graph pad prism ver.5 software. […]

[2] = test system: P. vivax clinical field isolates; experiment: Ex vivo drug susceptibility assay (schizont maturation, flow cytometry) on P. vivax clinical field isolates; details: for Drug susceptibility difference between species: P. falciparum versus P. vivax clinical field isolates
Source text: The biological activity of compound 1b according to the invention has been tested on the basis of an IC50 evaluation against the strain P. vivax.
Plasmodium isolates were collected from patients attending malaria clinics in Timika (Papua, Indonesia), a region endemic for multidrug-resistant strains of P. vivax and P. falciparum. Patients with symptomatic malaria presenting to an outpatient facility were recruited into the study if singly infected with P. falciparum or P. vivax, with a parasitaemia of between […], and the majority (>60%) of parasites at ring stage of development. Venous blood (5 mL) was collected by venepuncture and after removal of host white blood cells by using Plasmodipur filters (EuroProxima B.V., The Netherlands), packed infected red blood cells (iRBCs) were used for the ex vivo drug susceptibility assay.
Standard anti-malarial drugs chloroquine (CQ), piperaquine (PIP), mefloquine (MFQ), and artesunate (AS) (WWARN QA/QC Reference Material Program), and experimental compound 1b were prepared as 1 mg/mL stock solutions in H2O or dimethyl sulfoxide (DMSO) according to the manufacturers' instructions. Drug plates were pre-dosed by diluting the compounds in 50% Methanol followed by lyophilisation and stored at 4° C.
(§1) Drug susceptibility of P. vivax and P. falciparum isolates was measured using a protocol modified from the WHO microtest (see for instance in Marfurt J. et al., Antimicrob Agents Chemother. 2011 September; 55(9):4461).
(§2) Two hundred μL of a 2% haematocrit Blood Media Mixture (BMM), consisting of RPMI 1640 medium plus 10% AB+ human serum (P. falciparum) or McCoy's 5A medium plus 20% AB+ human serum (P. vivax) was added to each well of pre-dosed drug plates containing 11 serial concentrations (2-fold dilutions) of the anti-malarials (maximum concentration shown in brackets) CQ (2,993 nM), PIP (1,029 nM), MFQ (338 nM), AS (49 nM), and compound 1b (237 nM). A candle jar was used to mature the parasites at 37° C. for 35-56 hours. Incubation was stopped when >40% of ring stage parasites had reached the mature schizont stage in the drug-free control wells as determined by light microscopy.
Parasite growth was quantified by nucleic acid staining and data acquisition using flow cytometry as described in detail elsewhere6. Parasite growth was quantified for each drug concentration and normalised to the control well.
The dose-response data were analysed using nonlinear regression analysis and the half-maximal inhibition of growth (IC50) value derived using an inhibitory sigmoid Emax model (In Vitro Analysis and Reporting Tool; IVART7).
Drug plate quality was assured by running schizont maturation assays with the chloroquine-resistant strain K1 and the chloroquine-sensitive strain FC27.

[3] = test system: P. falciparum clinical field isolates; experiment: Ex vivo drug susceptibility assay (schizont maturation, flow cytometry) on P. falciparum clinical field isolates; details: Plasmodium falciparum, isolates from Timika (Papua, Indonesia), 35-56 hours
Protocol: Plasmodium isolates were collected from patients attending malaria clinics in Timika (Papua, Indonesia), a region endemic for multidrug-resistant strains of P. vivax and P. falciparum. Patients with symptomatic malaria presenting to an outpatient facility were recruited into the study if singly infected with P. falciparum or P. vivax, with a parasitaemia of between […], and the majority (>60%) of parasites at ring stage of development. […]
as §1
as §2, with “A candle jar was used to mature the parasites at 37° C. for 35-56 hours.” left out, “microscopy. […]” for “microscopy.”

[4] = Plasmodium falciparum, NF54, upper bound as printed, 72 hours, 3H-hypoxanthine incorporation, read-out: NF54 IC50
[5] = measured values printed under the bound, 72 hours, 3H-hypoxanthine incorporation, read-out: NF54 IC50 (nM), measured values

| SMILES | IC50 [1, 4] [nM] | Drug susceptibility difference between species [2] | also measured |
| --- | --- | --- | --- |
| N=C(N)NC(=O)c1cc(C#Cc2ccc(C(F)(F)F)c(C(=O)Nc3ccccn3)c2)cc(C(F)(F)F)c1 [Compound 1a, 5-((3-(carbamimidoylcarbamoyl)-5-(trifluoromethyl)phenyl)ethynyl)-N-(pyridin-2-yl)-2-(trifluoromethyl)benzamide] | < 10 |  | IC50 [1, 5]: 7 nM |
| Cl.N=C(N)NC(=O)c1cc(C#Cc2ccc(C(F)(F)F)c(C(=O)Nc3ccccn3)c2)cc(C(F)(F)F)c1 [Compound 1b, 5-((3-(carbamimidoylcarbamoyl)-5-(trifluoromethyl)phenyl)ethynyl)-N-(pyridin-2-yl)-2-(trifluoromethyl)benzamide hydrochloride] |  | did not differ significantly | IC50 ([2]; Plasmodium vivax, ex vivo, isolates from Timika (Papua, Indonesia), 35-56 hours): 0.012 µM; IC50 ([1]; upper bound, 72 hours, 3H-hypoxanthine incorporation, hydrochloride, read-out: NF54 IC50): < 15 nM; IC50 [3]: 0.0189 µM |
| N=C(N)NC(=O)c1cc(C#Cc2ccc(C(F)(F)F)c(C(=O)Nc3ccccn3)c2)cc(C(F)(F)F)c1 [Compound 1c, 5-((3-(carbamimidoylcarbamoyl)-5-(trifluoromethyl)phenyl)ethynyl)-N-(pyridin-2-yl)-2-(trifluoromethyl)benzamide malonic acid] |  |  | IC50 [1, 5]: 17 nM; IC50 ([1]; upper bound, 72 hours, 3H-hypoxanthine incorporation, read-out: NF54 IC50): < 20 nM |
| Cc1cccc(NC(=O)c2cc(C#Cc3cc(C(=O)NC(=N)N)cc(C(F)(F)F)c3)ccc2C)n1 [Compound 2, 5-((3-((diaminomethylene)carbamoyl)-5-(trifluoromethyl)phenyl)ethynyl)-2-methyl-N-(6-methylpyridin-2-yl)benzamide hydrochloride] |  |  | IC50 ([1]; Plasmodium falciparum, NF54, read-out: NF54 IC50 (nM)): < 25 nM |
| Cc1cccc(NC(=O)c2cc(C#Cc3cc(F)cc(C(=O)NC(=N)N)c3)ccc2C(F)(F)F)n1 [Compound 3, 5-((3-(carbamimidoylcarbamoyl)-5-fluorophenyl)ethynyl)-N-(6-methylpyridin-2-yl)-2-(trifluoromethyl)benzamide hydrochloride] | < 25 |  |  |
| Cc1ccc(C#Cc2cc(C(=O)NC(=N)N)cc(C(F)(F)F)c2)cc1C(=O)Nc1ccccn1 [Compound 4, 5-((3-(carbamimidoylcarbamoyl)-5-trifluoromethyl)phenyl)ethynyl)-2-methyl-N-(pyridin-2-yl)benzamide hydrochloride] | < 10 |  |  |
| N=C(N)NC(=O)c1cc(C#Cc2ccc(C(F)(F)F)c(C(=O)Nc3ccc(O)cn3)c2)cc(C(F)(F)F)c1 [Compound 5, 5-((3-(carbamimidoylcarbamoyl)-5-(trifluoromethyl)phenyl)ethynyl)-N-(5-hydroxypyridin-2-yl)-2-(trifluoromethyl)benzamide hydrochloride] | < 10 |  |  |
| N=C(N)NC(=O)c1cc(C#Cc2ccc(Cl)c(C(=O)Nc3ccccn3)c2)cc(C(F)(F)F)c1 [Compound 6, 5-((3-(carbamimidoylcarbamoyl)-5-(trifluoromethyl)phenyl)ethynyl)-2-chloro-N-(pyridin-2-yl)benzamide hydrochloride] | < 10 |  |  |
| N=C(N)NC(=O)c1cc(F)cc(C#Cc2ccc(C(F)(F)F)c(C(=O)Nc3ccccn3)c2)c1 [Compound 7, 5-((3-(carbamimidoylcarbamoyl)-5-fluorophenyl)ethynyl)-N-(pyridin-2-yl)-2-(trifluoromethyl)benzamide hydrochloride] | < 20 |  |  |
| N=C(N)NC(=O)c1cc(C#Cc2ccc(C(F)(F)F)c(C(N)=O)c2)cc(C(F)(F)F)c1 [Compound 8] | < 100 |  |  |
| C[C@H]1[C@H](OC(=O)CCC(=O)O)O[C@@H]2O[C@@]3(C)CC[C@H]4[C@H](C)CC[C@@H]1[C@@]24OO3 [artesunate] |  | did not differ significantly |  |
| OC(c1cc(C(F)(F)F)nc2c(C(F)(F)F)cccc12)C1CCCCN1 (stereo not drawn) [mefloquine] |  | did not differ significantly |  |
| Clc1ccc2c(N3CCN(CCCN4CCN(c5ccnc6cc(Cl)ccc56)CC4)CC3)ccnc2c1 [piperaquine] |  | did not differ significantly |  |
